Where two headings read alike, the source gives them in different places.
Experiments:
[1] = system: wild type laboratory HIV strain (HIV-1 strain LAI); assay: microbe, parasite or virus in culture; format: cell-based
Experimental: (§1) The compounds were tested in a cellular assay using the MT4-LTR-EGFP cells for anti-viral activity. […] The cellular assay was performed according to the following procedure.
(§2) HIV- or mock-infected MT4-LTR-EGFP cells were incubated for three days in the presence of various concentrations of the inhibitor. Upon infection, the GFP reporter is activated by the viral tat protein. At the end of the incubation period, the GFP signal was measured. In the virus control samples (in the absence of any inhibitor) the maximal fluorescent signal was obtained. The inhibitory activity of the compound was monitored on the virus-infected cells and was expressed as EC50 and EC90. These values represent the amount of the compound required to protect 50% and 90%, respectively, of the cells from virus infection.

[2] = system: multi-drug resistant HIV-1 virus (HIV-1-MDR); assay: microbe, parasite or virus in culture; format: cell-based; settings: for Activity class for HIV-1-MDR test (pEC50 values): MT4-LTR-EGFP cells, three days incubation, GFP signal, average where more than one run
Experimental: as §1, §2

[3] = MT4-LTR-EGFP cells, three days incubation, GFP signal, average where more than one run

Row | SMILES | EC50 ([1]; Human immunodeficiency virus 1, 72 h, MT4-LTR-EGFP cells, three days incubation, GFP signal, average where more than one run, read-out: Activity class for HIV-1-LAI test (pEC50 values) (converted)) [nM] | EC50 ([2]; Human immunodeficiency virus 1, 72 h, read-out: Activity class for HIV-1-MDR test (pEC50 values) (converted)) [nM] | Activity class for HIV-1-LAI test (pEC50 values) [1, 3] | Activity class for HIV-1-MDR test (pEC50 values) [2] | Activity class for HIV-1-LAI test (pEC50 values) [1]
1 | CCN(CC)Cc1ccc(C2=NN3C(C(=O)c4ccc(C#N)cc4)Oc4ccccc4C3C2)cc1 (stereo not drawn) [Compound 1, 4-[4-(4-cyano-benzoyl)-1,9b-dihydro-5-oxa-3,3a-diaza-cyclopenta[a]naphthalen-2-yl]-N,N-diethyl-benzylamine] | 19.1 | 8.71 | – | – | –
2 | N#Cc1ccc(C(=O)C2Oc3ccccc3C3CC(c4ccc(CNCc5ccccc5)cc4)=NN23)cc1 (stereo not drawn) [Compound 2] | – | – | 7.58 | 7.83 | –
3 | CN(C)CCN(C)Cc1ccc(C2=NN3C(C(=O)c4ccc(C#N)cc4)Oc4ccccc4C3C2)cc1 (stereo not drawn) [Compound 4] | – | – | 6.41 | 6.25 | –
4 | COc1ccc(NCc2ccc(C3=NN4C(C(=O)c5ccc(C#N)cc5)Oc5ccccc5C4C3)cc2)cc1 (stereo not drawn) [Compound 5] | – | – | – | 6.5 | 6.22
5 | N#Cc1ccc(C(=O)C2Oc3ccccc3C3CC(c4ccc(CNCc5ccccn5)cc4)=NN23)cc1 (stereo not drawn) [Compound 6] | – | – | 7.13 | 7.28 | –
6 | N#Cc1ccc(C(=O)C2Oc3ccccc3C3CC(c4ccc(CNCCN5CCCC5)cc4)=NN23)cc1 (stereo not drawn) [Compound 7] | – | – | 6.55 | 6.49 | –
7 | COc1ccc(CN(C)Cc2ccc(C3=NN4C(C(=O)c5ccc(C#N)cc5)Oc5ccccc5C4C3)cc2)cc1 (stereo not drawn) [Compound 8] | – | – | 7.81 | 7.85 | –
8 | COc1ccc(CN(C)Cc2ccc(C3=NN4C(C(=O)c5ccc(C(C)(C)C)cc5)Oc5ccccc5C4C3)cc2)cc1 (stereo not drawn) [Compound 9] | – | – | 7.28 | 7 | –
9 | CCN(CC)Cc1ccc(C2=NN3C(C(=O)c4ccc(C(C)(C)C)cc4)Oc4ccccc4C3C2)cc1 (stereo not drawn) [Compound 11] | – | – | 7.64 | 7.59 | –
10 | CCN(CC)CCc1ccc(C2=NN3C(C(=O)c4ccc(C#N)cc4)Oc4ccccc4C3C2)cc1 (stereo not drawn) [Compound 12] | – | – | 7.16 | 7.35 | –
11 | CN(Cc1ccc(C2=NN3C(C(=O)c4ccc(C#N)cc4)Oc4ccccc4C3C2)cc1)C1CCCC1 (stereo not drawn) [Compound 13] | – | – | 8.32 | 8.62 | –
12 | COc1ccc(NCCCc2ccc(C3=NN4C(C(=O)c5ccc(C#N)cc5)Oc5ccccc5C4C3)cc2)cc1 (stereo not drawn) [Compound 14] | – | – | – | 6.34 | 6.41
13 | CN(C)CCN(C)CCCc1ccc(C2=NN3C(C(=O)c4ccc(C#N)cc4)Oc4ccccc4C3C2)cc1 (stereo not drawn) [Compound 15] | – | – | 5.42 | 5.52 | –
14 | CN(C)CCCc1ccc(C2=NN3C(C(=O)c4ccc(C#N)cc4)Oc4ccccc4C3C2)cc1 (stereo not drawn) [Compound 16] | – | – | – | 5.51 | 5.6
15 | N#Cc1ccc(C(=O)C2Oc3ccccc3C3CC(c4ccc(CCCNCc5ccccc5)cc4)=NN23)cc1 (stereo not drawn) [Compound 17] | – | – | 5.56 | 5.37 | –
16 | N#Cc1ccc(C(=O)C2Oc3ccccc3C3CC(c4ccc(CCCCNCc5ccccc5)cc4)=NN23)cc1 (stereo not drawn) [Compound 18] | – | – | – | 5.47 | 5.47
17 | CCN(CC)CCCCc1ccc(C2=NN3C(C(=O)c4ccc(C#N)cc4)Oc4ccccc4C3C2)cc1 (stereo not drawn) [Compound 19] | – | – | 5.39 | 5.43 | –

Row | SMILES | EC50 ([1]; Human immunodeficiency virus 1, 72 h, MT4-LTR-EGFP cells, three days incubation, GFP signal, average where more than one run, read-out: Activity class for HIV-1-LAI test (pEC50 values) (converted)) [nM] | EC50 ([2]; Human immunodeficiency virus 1, 72 h, read-out: Activity class for HIV-1-MDR test (pEC50 values) (converted)) [nM] | Activity class for HIV-1-LAI test (pEC50 values) [1, 3] | Activity class for HIV-1-MDR test (pEC50 values) [2] | Activity class for HIV-1-LAI test (pEC50 values) [1]
18 | COc1ccc(NCCCCc2ccc(C3=NN4C(C(=O)c5ccc(C#N)cc5)Oc5ccccc5C4C3)cc2)cc1 (stereo not drawn) [Compound 20] | – | – | – | 6.51 | 7.42
19 | N#Cc1ccc(C(=O)C2Oc3ccccc3C3CC(c4ccc(CCCCNCc5ccncc5)cc4)=NN23)cc1 (stereo not drawn) [Compound 21] | – | – | 5.23 | 5.2 | –
20 | CN(C)CCN(C)CCCCc1ccc(C2=NN3C(C(=O)c4ccc(C#N)cc4)Oc4ccccc4C3C2)cc1 (stereo not drawn) [Compound 22] | – | – | 5.52 | 5.47 | –
21 | COc1ccc(CN(C)CCCCc2ccc(C3=NN4C(C(=O)c5ccc(C#N)cc5)Oc5ccccc5C4C3)cc2)cc1 (stereo not drawn) [Compound 23] | – | – | 5.38 | 5.32 | –
22 | COc1ccc(CN(C)CCCc2ccc(C3=NN4C(C(=O)c5ccc(C#N)cc5)Oc5ccccc5C4C3)cc2)cc1 (stereo not drawn) [Compound 25] | – | – | 6.53 | 5.04 | –
23 | N#Cc1ccc(C(=O)C2Oc3ccccc3C3CC(c4ccc(CCCCNCc5ccccn5)cc4)=NN23)cc1 (stereo not drawn) [Compound 26] | – | – | 5.28 | 4.86 | –
24 | CN(CCCCc1ccc(C2=NN3C(C(=O)c4ccc(C#N)cc4)Oc4ccccc4C3C2)cc1)C1CCCC1 (stereo not drawn) [Compound 27] | – | – | 5.36 | 5.15 | –
25 | COc1ccc(CN(C)Cc2ccc(C3=NN4C(C(=O)c5ccc(S(C)(=O)=O)cc5)Oc5ccccc5C4C3)cc2)cc1 (stereo not drawn) [Compound 29] | – | – | 8.47 | 8.56 | –
26 | CCN(CC)Cc1ccc(C2=NN3C(C(=O)c4ccc(S(C)(=O)=O)cc4)Oc4ccccc4C3C2)cc1 (stereo not drawn) [Compound 30] | – | – | 7.9 | 7.95 | –
27 | N#Cc1ccc(C(=O)C2Oc3ccccc3C3CC(c4ccc(CCCNCc5ccccn5)cc4)=NN23)cc1 (stereo not drawn) [Compound 31] | – | – | 4.85 | 5.38 | –
28 | COc1ccc(CN(C)CCc2ccc(C3=NN4C(C(=O)c5ccc(C#N)cc5)Oc5ccccc5C4C3)cc2)cc1 (stereo not drawn) [Compound 32] | – | – | 7.08 | 6.72 | –
29 | N#Cc1ccc(C(=O)C2Oc3ccccc3C3CC(c4ccc(CCNCc5ccccc5)cc4)=NN23)cc1 (stereo not drawn) [Compound 33] | – | – | 6.35 | 6.07 | –
30 | CN(C)CCN(C)CCc1ccc(C2=NN3C(C(=O)c4ccc(C#N)cc4)Oc4ccccc4C3C2)cc1 (stereo not drawn) [Compound 34] | – | – | 6.25 | 6.12 | –
31 | CN(CCCc1ccc(C2=NN3C(C(=O)c4ccc(C#N)cc4)Oc4ccccc4C3C2)cc1)C1CCCC1 (stereo not drawn) [Compound 35] | – | – | 5.76 | 5.81 | –
32 | CN(Cc1ccc(C2=NN3C(C(=O)c4ccc(C#N)cc4)Oc4ccccc4C3C2)cc1)Cc1ccc(N(C)C)cc1 (stereo not drawn) [Compound 36] | – | – | 7.45 | 7.18 | –
33 | CN(C)c1ccc(CNCc2ccc(C3=NN4C(C(=O)c5ccc(C#N)cc5)Oc5ccccc5C4C3)cc2)cc1 (stereo not drawn) [Compound 37] | – | – | 6.12 | 6.31 | –
